Literature values as cited in patent US11878022B2 (Novitium Pharma LLC, priority 2020, dated 2024).

Key:
[1] = in vivo
[2] = in vivo; remark: listed apart in the source

- Binding to serum proteins [1]: 40-68%
- absorbed dose excreted in urine as unchanged drug ([1]; po): greater than 95%
Compound: NS(=O)(=O)c1cc2c(cc1Cl)NCNS2(=O)=O [Hydrochlorothiazide, 6-Chloro-3,4-dihydro-2H-1,2,4-benzothiadiazine-7-sulfonamide-1,1-dioxide]
- Onset of action after dosing [2]: ≤ 2 h
- persistence of activity [2]: up to 24 hours
- time of peak effect [2]: about 4 hours
